Experimental data taken from paper PMC5529423, “ATP-dependent modulation of MgtE in Mg^2+ homeostasis” (Nature Communications, 2017).

Assays:
[1] = biological target: T1, TtMgtE (full-length MgtE) (Thermus thermophilus, UniProt Q5SMG8); test: isothermal titration calorimetry; assay type: binding
T1 construct: full-length, expressed in E. coli C41 (DE3), Ni-NTA and gel filtration in detergent; homodimer; tag not described
T1 sequence (Q5SMG8 1-450): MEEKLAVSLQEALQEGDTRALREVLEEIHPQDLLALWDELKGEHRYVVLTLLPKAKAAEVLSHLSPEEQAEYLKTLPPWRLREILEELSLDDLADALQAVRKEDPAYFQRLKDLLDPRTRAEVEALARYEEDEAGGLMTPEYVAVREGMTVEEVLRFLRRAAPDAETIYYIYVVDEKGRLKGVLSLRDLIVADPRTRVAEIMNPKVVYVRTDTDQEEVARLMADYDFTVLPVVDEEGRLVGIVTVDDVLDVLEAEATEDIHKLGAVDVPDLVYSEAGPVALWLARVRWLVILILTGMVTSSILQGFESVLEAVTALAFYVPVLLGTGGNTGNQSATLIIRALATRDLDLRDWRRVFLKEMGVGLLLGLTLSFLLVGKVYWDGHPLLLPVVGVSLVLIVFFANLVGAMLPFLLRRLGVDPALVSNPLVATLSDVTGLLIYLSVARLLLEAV

[2] = biological target: T2, TtMgtE (full-length MgtE) (Thermus thermophilus, UniProt Q5SMG8, R187E); test: isothermal titration calorimetry; assay type: binding; settings: 20 °C, no added Mg2+, NTM detergent, ligand solution pH 6.5; CBS domain site
T2 construct: full-length, expressed in E. coli C41 (DE3), Ni-NTA and gel filtration in detergent; homodimer; tag not described

[3] = biological target: the molecule itself; test: crystal structure; full-length MgtE with ATP; vapor diffusion over 9% PEG 4000, 0.2 M MgCl2, 0.05 M MES pH 6.5; 3.6 Å
[4] = biological target: the molecule itself; test: crystal structure; cytosolic domain (1-275) with ATP; vapor diffusion over 20-22% PEG 400, 0.2 M MgCl2, 0.1 M HEPES pH 7.4; 3.0 Å

T2 sequence (Q5SMG8 whole entry R187E, the tested form may be a part): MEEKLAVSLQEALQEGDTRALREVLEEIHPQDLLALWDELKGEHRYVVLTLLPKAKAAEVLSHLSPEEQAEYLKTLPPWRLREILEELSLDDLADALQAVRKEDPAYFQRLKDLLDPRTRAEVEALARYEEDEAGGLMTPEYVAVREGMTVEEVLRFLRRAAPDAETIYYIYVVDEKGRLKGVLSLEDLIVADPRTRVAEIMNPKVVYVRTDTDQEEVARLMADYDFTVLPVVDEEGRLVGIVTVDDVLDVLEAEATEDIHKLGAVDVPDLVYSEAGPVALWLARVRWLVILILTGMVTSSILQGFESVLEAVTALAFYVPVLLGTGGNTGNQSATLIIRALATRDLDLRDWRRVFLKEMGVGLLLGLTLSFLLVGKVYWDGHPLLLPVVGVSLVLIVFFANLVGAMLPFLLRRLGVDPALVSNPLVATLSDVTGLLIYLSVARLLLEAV

`Nc1ncnc2c1ncn2[C@@H]1O[C@H](COP(=O)(O)OP(=O)(O)O)[C@@H](O)[C@H]1O` [ADP] was tested, and the Kd [1] was 763 µM.

With `Nc1ncnc2c1ncn2[C@@H]1O[C@H](COP(=O)(O)OP(=O)(O)OP(=O)(O)O)[C@@H](O)[C@H]1O` [ATP] the Kd [1] was 415 µM and the isothermal titration calorimetry [2] was “The injection of ATP into the R187E mutant solution still showed the weaker binding to ATP”.

B1: full-length Thermus thermophilus MgtE (natural protein, UniProt Q5SMG8 1-450, looked up)
chain: T1 sequence (Q5SMG8 1-450)
notes: MgtE Mg2+ channel of Thermus thermophilus, full length; crystallised with ATP and Mg2+; That MgtE is a homodimer is said in the introduction, of the earlier full-length structure; also called TtMgtE; wild type MgtE; source: E. coli C41 (DE3), solubilized with DDM, purified (Ni-NTA, Superdex 200 SEC)
B1: binds [3].

B2: cytosolic domain (1-275) of MgtE (domain or fragment, Thermus thermophilus, UniProt Q5SMG8 1-275, looked up)
chain: MEEKLAVSLQEALQEGDTRALREVLEEIHPQDLLALWDELKGEHRYVVLTLLPKAKAAEVLSHLSPEEQAEYLKTLPPWRLREILEELSLDDLADALQAVRKEDPAYFQRLKDLLDPRTRAEVEALARYEEDEAGGLMTPEYVAVREGMTVEEVLRFLRRAAPDAETIYYIYVVDEKGRLKGVLSLRDLIVADPRTRVAEIMNPKVVYVRTDTDQEEVARLMADYDFTVLPVVDEEGRLVGIVTVDDVLDVLEAEATEDIHKLGAVDVPDLVYSE
notes: MgtE Mg2+ channel of Thermus thermophilus, cytosolic domain (N domain and tandem CBS domains), residues 1-275; crystallised with ATP and Mg2+; also called MgtE cytosolic domain; source: E. coli C41 (DE3), purified
B2: binds [4].
